The numbers were not newly measured in patent US20240260569A1, “DISINFECTANT LIQUID, PREPARATION METHOD THEREOF AND FILM LAYER” (Shanghai Anpas New Materials Science & Technology Co., Ltd., priority 2021, published 2024), which cites them from elsewhere.

The structures appear in SMILES notation. Read-outs that look alike come from different tables or passages of the source.

The conditions of series [1]: aqueous solution.
For series [2] the following is noted: relative to hypochlorite ions.

With `O=c1nc([O-])n(Cl)c(=O)n1Cl.[Na+]` [Sodium dichloroisocyanurate], the active chlorine loss result in series [1] (within a week) is on record as “about 50%”. With `OCl` [hypochlorous acid], in series [2], the “disinfection and sterilization ability versus hypochlorite ions” value is 80 to 100 times. Regarding `OCl` [sodium hypochlorite], the “pH of a 10% solution” value is given as “around 12”. Moreover, the active chlorine loss in series [1] (pH 9.4, after 14 days at 55° C.) is recorded as 63%. Further, the active chlorine loss in series [1] (pH=8.7, after 14 days at 55° C.) is given as 94%.
